Test results reported in US9226982B2, “Gall bladder imaging agent and its preparation method” (INSTITUTE OF NUCLEAR ENERGY RESEARCH ATOMIC ENERGY COUNCIL, …, priority 2012, dated 2016).

Columns and labels:
[1] = molecular target: T1, ASGPR (Mus musculus, UniProt P24721+P34927); assay: Binding strength between carbohydrate chain peptide and mice liver cell (competition with Eu-ASOR, time-resolved fluorescence)
T1 construct: host or cells: mouse liver cells (hepatocytes) cultured on 24-well plates
T1 sequence (P34927 1-284): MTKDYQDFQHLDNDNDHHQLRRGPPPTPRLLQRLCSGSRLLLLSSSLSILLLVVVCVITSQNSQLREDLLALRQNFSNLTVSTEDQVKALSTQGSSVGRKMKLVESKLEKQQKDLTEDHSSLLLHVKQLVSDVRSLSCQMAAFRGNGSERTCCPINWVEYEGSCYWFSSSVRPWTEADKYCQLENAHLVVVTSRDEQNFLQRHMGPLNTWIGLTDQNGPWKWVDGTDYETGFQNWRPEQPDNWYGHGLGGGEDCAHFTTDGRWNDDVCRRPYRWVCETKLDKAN
T1 sequence (P24721 1-301): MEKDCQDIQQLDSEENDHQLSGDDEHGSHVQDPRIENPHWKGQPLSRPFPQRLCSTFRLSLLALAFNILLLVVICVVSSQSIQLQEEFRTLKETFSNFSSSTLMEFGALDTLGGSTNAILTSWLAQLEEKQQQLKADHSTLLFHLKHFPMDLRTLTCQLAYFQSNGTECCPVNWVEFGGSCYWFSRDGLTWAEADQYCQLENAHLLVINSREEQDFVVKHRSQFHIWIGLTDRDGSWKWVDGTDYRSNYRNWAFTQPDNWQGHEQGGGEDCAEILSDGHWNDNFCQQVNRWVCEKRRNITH
Excerpt: The binding strength between carbohydrate chain peptide and a mice liver cell uses Eu-asialo-orosomucoid (Eu-ASOR) as a reference substance and compares whether carbohydrate chain peptides such as DCM-Lys(ah-GalNAc)3, […] larger binding capacity to a mice liver cell than Eu-ASOR. IC50 (50% inhibitory concentration) represents the binding capacity. Smaller IC50 represents larger binding capacity. Mice liver cells are purchased from Lonza biotechnology company in State of Maryland, which are placed and cultivated on a 24-well plate in advance. Reaction takes place at each well. […] Perform oscillating culture for 1 hours. Use an ammonium-chloride-containing liver cell base culture medium to wash away substances that are not bonded to liver cells. Perform time-resolved fluorescence analysis, namely, add an enhancer (15 μM of β-naphthoyl trifluoroacetone, 50 μM of tri-n-octyl-phosphine oxide, 0.1M of potassium hydrogen phthalate, and 0.1% of Triton X-100 in 0.1M of acetic acid, pH of 3.2). The enhancer forms an Eu chelate with Eu^3+ and emits light of 615 nm when energized by 340 nm. The logarithmic value of the concentration of carbohydrate chain peptide is taken as X-axis, and the emitted fluorescence value is taken as the Y-axis. […] However, the binding between DCM-Lys(Gah-GalNAc)3 and ASGPR is 10 times as large as the binding strength of YEE and YDD.

[2] = in vivo
Excerpt: Tyrosine-glutamyl-glutamic acid (YEE) and tyrosine-aspartyl-aspartic acid (YDD) are first proposed by Lee et al. (1983). Tyrosine-glutamyl-glutamyl-glutamic acid (YEEE) is an improved invention by Chen et al. (ROC Patent TW1240002, 2000). The binding force between double-chain galactose amino peptide proposed by Lee et al. in 1983 and a liver cell is 1000 times as large as that of single-chain galactose amino peptide. The binding force between triple-chain galactose amino peptide and a liver cell is 10^6 times as large as that of sing-chain galactose amino peptide. Our laboratory has synthesized DTPA-hexa-lactose with a single lysine derivative earlier, which has very high specific radioactivity with the In-111 label and has a very desirable effect of accumulation at the liver in animal experiments. However, our animal experiments have shown that In-111-DTPA-hexa-lactose stays at the liver very stably for at least half an hour, and it is actually not easy to observe changes of absorption of the gall bladder in the entire imaging process. Therefore, In-111-DTPA-hexa-lactose is suitable for use in remaining liver function test or measurement of remaining liver after liver resection, but is not very suitable for use as a gall bladder imaging agent.

SMILES: NCCCCCC(=O)N[C@@H](CC(=O)NCCCC[C@@H](C(=O)NCCCCCCO[C@@H]1O[C@H](CO)[C@@H](O[C@@H]2O[C@H](CO)[C@H](O)[C@H](O)[C@H]2O)[C@H](O)[C@H]1O)N(CC(=O)NCCCCCCO[C@@H]1O[C@H](CO)[C@@H](O[C@@H]2O[C@H](CO)[C@H](O)[C@H](O)[C@H]2O)[C@H](O)[C@H]1O)CC(=O)NCCCCCCO[C@@H]1O[C@H](CO)[C@@H](O[C@@H]2O[C@H](CO)[C@H](O)[C@H](O)[C@H]2O)[C@H](O)[C@H]1O)C(=O)NCCCC[C@@H](C(=O)NCCCCCCO[C@@H]1O[C@H](CO)[C@@H](O[C@@H]2O[C@H](CO)[C@H](O)[C@H](O)[C@H]2O)[C@H](O)[C@H]1O)N(CC(=O)NCCCCCCO[C@@H]1O[C@H](CO)[C@@H](O[C@@H]2O[C@H](CO)[C@H](O)[C@H](O)[C@H]2O)[C@H](O)[C@H]1O)CC(=O)NCCCCCCO[C@@H]1O[C@H](CO)[C@@H](O[C@@H]2O[C@H](CO)[C@H](O)[C@H](O)[C@H]2O)[C@H](O)[C@H]1O [AHA-Asp[DCM-Lys(ahLac)3]2]
- binding strength to ASGPR compared with YEE and YDD (in words) ([1]; compared with YEE and YDD): same binding strength as YEE and YDD

SMILES: CC(=O)N[C@H]1[C@H](OCCCCCCNC(=O)CNC(=O)CN(CC(=O)NCC(=O)NCCCCCCO[C@@H]2O[C@H](CO)[C@H](O)[C@H](O)[C@H]2NC(C)=O)[C@@H](CCCCN)C(=O)NCC(=O)NCCCCCCO[C@@H]2O[C@H](CO)[C@H](O)[C@H](O)[C@H]2NC(C)=O)O[C@H](CO)[C@H](O)[C@@H]1O [DCM-Lys(GahGalNAc)3]
- binding strength to ASGPR relative to YEE and YDD ([1]; compared with YEE and YDD): 10 times
- IC50 ([1]; mice liver cells, 10 nM Eu-ASOR as reference substance, 1 hour culture): 1 nM

SMILES: O=C(O)CN(CCN(CC(=O)O)CC(=O)O)CCN(CC(=O)O)CC(=O)NCCCCCC(=O)N[C@@H](CC(=O)NCCCC[C@@H](C(=O)NCCCCCCO[C@@H]1O[C@H](CO)[C@@H](O[C@@H]2O[C@H](CO)[C@H](O)[C@H](O)[C@H]2O)[C@H](O)[C@H]1O)N(CC(=O)NCCCCCCO[C@@H]1O[C@H](CO)[C@@H](O[C@@H]2O[C@H](CO)[C@H](O)[C@H](O)[C@H]2O)[C@H](O)[C@H]1O)CC(=O)NCCCCCCO[C@@H]1O[C@H](CO)[C@@H](O[C@@H]2O[C@H](CO)[C@H](O)[C@H](O)[C@H]2O)[C@H](O)[C@H]1O)C(=O)NCCCC[C@@H](C(=O)NCCCCCCO[C@@H]1O[C@H](CO)[C@@H](O[C@@H]2O[C@H](CO)[C@H](O)[C@H](O)[C@H]2O)[C@H](O)[C@H]1O)N(CC(=O)NCCCCCCO[C@@H]1O[C@H](CO)[C@@H](O[C@@H]2O[C@H](CO)[C@H](O)[C@H](O)[C@H]2O)[C@H](O)[C@H]1O)CC(=O)NCCCCCCO[C@@H]1O[C@H](CO)[C@@H](O[C@@H]2O[C@H](CO)[C@H](O)[C@H](O)[C@H]2O)[C@H](O)[C@H]1O [In-111-DTPA-hexa-lactose, metal not drawn]
- time it stays at the liver very stably [2]: at least half an hour
